From patent US7510825B2, “Kits and methods for detection of apoptotic cells” (NST NeuroSurvival Technologies Ltd, priority 2000, dated 2009)

Tests used:
[1] = test system: renal tubular cells, ischemic kidney; experiment: Renal cell injury (ischemia-reperfusion) detection by DDC; assay type: in vivo, rats
Protocol: A. Administration of DDC in-vivo: Injection of 200 μl of DDC intravenously. Following 1-2 hours, animal is sacrificed, and the desired organ is placed in a test tube or on a small plate, suitable for liquid nitrogen freezing. The plate is then covered with an aluminum foil, and transferred to liquid nitrogen. Following 5-30 minutes the specimen is being frozen to −80° C. and kept at −80° C. for at least 16 hr. B. Analysis of the Specimen: • a. Whole organ imaging Ex-vivo whole organ fluorescence imaging may be carried out on freshly excised specimen, that can be analyzed under a stereomicroscope (such as Leica MZ FL III, Leica Switzerland). DDC may be visualized using 360cx and >420cm nm filter set. Emitted fluorescence can be imaged using appropriate camera and software, such as a Leica DC 300F Distal camera and images can be processed and analyzed by Leica QWin Lite software. • b. Histological analysis, from the frozen organ or tissue, 4 μm cryosections are prepared on slides. Analysis of the tissue sections can be performed using a fluorescence microscope with a UV filter characterized by excitation at 360-370 nm (band pass) and emission at 420 nm (barrier filter) In case that staining of the examined tissue is desired, the following procedures can be applied: […]

[2] = test system: injured renal tissues (outer medulla); experiment: Radiocontrast-induced distal tubular necrosis model, detection by DDC; assay type: in vivo, rat; settings: 24 h after radiocontrast insult, DDC i.v. 2 hours
Protocol: A. Administration of DDC in-vivo: Injection of 200 μl of DDC intravenously. Following 1-2 hours, animal is sacrificed, and the desired organ is placed in a test tube or on a small plate, suitable for liquid nitrogen freezing. The plate is then covered with an aluminum foil, and transferred to liquid nitrogen. Following 5-30 minutes the specimen is being frozen to −80° C. and kept at −80° C. for at least 16 hr. B. Analysis of the Specimen: • a. Whole organ imaging Ex-vivo whole organ fluorescence imaging may be carried out on freshly excised specimen, that can be analyzed under a stereomicroscope (such as Leica MZ FL III, Leica Switzerland). DDC may be visualized using 360cx and >420cm nm filter set. Emitted fluorescence can be imaged using appropriate camera and software, such as a Leica DC 300F Distal camera and images can be processed and analyzed by Leica QWin Lite software. • b. […] Analysis of the tissue sections can be performed using a fluorescence microscope with a UV filter characterized by excitation at 360-370 nm (band pass) and emission at 420 nm (barrier filter) In case that staining of the examined tissue is desired, the following procedures can be applied:
The selectivity of DDC uptake in injured renal tissues was evaluated in this rat model, characterized by selective medullary hypoxic tubular damage. […]

[3] = test system: Jurkat cells (T-cell leukemia); experiment: Binding of DDC and PI to Jurkat cells treated with CD95, confocal microscopy; assay type: cell-based, human; settings: CD95 for 180 minutes; confocal microscope
Protocol: For microscopic analysis the concentration of cells should be within 1-2×10^7/ml. […] If fixation is needed, it should be performed after DDC staining. • 1. Adjusting the cells to 1-2×10^7/ml in buffer. • 2. Transferring 96 μl from the cell suspension to an eppendorf and staining the cells by adding 4 μl from the DDC solution. Incubating for 10-40 minutes at RT protected from light. • 3. A double labeling could be conducted with PI, if desired. In such a case, 1 μl is added from the PI solution. • 4, Placing the cell suspension on a glass slide. Covering the cells with a glass coverslip. Alternatively, for analyzing adherent cells, cells may grow directly on coverslip. Staining the cells by incubation with DDC (4 μl of DDC/96 μl buffer reaction) or 10-40 minutes and PI (1 μl). […] Observing the cells under fluorescent or confocal microscope equipped with the appropriate UV filter (excitation at 360-370 nm, band pass, and emission at 420 nm, barrier filter. Using a Triple filter (Hoechst/FITC/Texas Red) allows concomitant observation of both DDC and PI. Quantitative Assay for DDC Accumulation using Fluorescene Spectroscopy
Jurkat cells (T-cell leukemia) were treated with CD95 for 180 minutes and incubated with DDC followed by incubation with Propidium Iodide (PI) as detailed in DDC protocols IIIC. The cells were analyzed under fluorescent confocal microscope using a UV filter. […]

platelets = experiment: Selective binding of DDC to activated platelets, flow cytometry; assay type: cell-based; settings: 10 μM DDC for 5 minutes
Protocol: The selective binding of DDC to activated platelets was determined using flow cytometric (FACS) analysis. Platelet-rich plasma was obtained from healthy volunteers. 10^9 of the fresh platelets were centrifuged (5 minutes, 380×g), washed and re-suspended in Tyrode's buffer (137 mM NaCl; 2.8 mM KCl; 1 mM MgCl2, 12 mM NaHCO3; 0.4 mM Na2HPO4; 5.5 mM D-glucose and 10 mM Hepes pH 7.4; 0.35% BSA). The purified platelets were kept on ice, and served as controls.
For activation, 200 μl of washed platelets were incubated with a mixture of 0.05 units/ml of thrombin and 5 μg/ml collagen for 5 min. at 37°, in the presence of 2 mM CaCl2 in a final volume of 1 ml. Following incubation, the platelets were centrifuged (2 min. at 10^4 rpm) and resuspended in 1 ml of Tyrode's buffer.
Activated and control non-treated platelets were incubated with 10 μM of DDC for 5 minutes at room temperature. […] Excitation was at 360 nm and emission was measured at 530 nm. […] While only a small fraction of the control platelets manifested binding of DDC (3.6% of the population), platelet activation caused 81% of the platelet population to acquire a marked DDC binding, reflected as a distinct shift to higher fluorescence intensity. As shown in tile FACS histogram in FIG. 21B, activation was associated with a major shift of the whole platelet population to higher fluorescence intensity. […]

CN(C)c1cccc2c(S(=O)(=O)NC(CSSCC(NS(=O)(=O)c3cccc4c(N(C)C)cccc34)C(=O)O)C(=O)O)cccc12 (stereo not drawn) [DDC]
DDC uptake, ischemic kidney compared with control kidney ([1]; 45 min renal artery clamping, DDC 20 h after reperfusion, ex-vivo whole organ fluorescence imaging): Significant increase in DDC uptake | DDC staining versus TUNEL staining ([1]; kidney sections after ischemia-reperfusion): Several cells were stained with DDC but were negative for TUNEL staining | DDC distribution pattern versus morphological findings in the contralateral kidney [2]: closely followed the characteristic striped pattern | cellular staining pattern in apoptotic cells [3]: accumulated within the cytoplasm of early and late apoptotic cells | fraction of platelet population binding DDC (platelets; control platelets): 3.6% | fraction of platelet population binding DDC (platelets; platelets activated by thrombin and collagen): 81%
